Experimental data from US5100909A, “Acetylenic imidazoles having central nervous system activity” (The Upjohn Company, priority 1991, dated 1992).
Several values for one entry are separate records, joined by “and”; a condition that tells them apart may be missing. Equal values may be shown once.

Test system: oxotremorine-induced body tremor in mice
Experiment: Oxotremorine antagonist assay (body tremor) in mice
Assay type: in vivo
Details: Mus musculus, ip, i.p. test compound, 20 min before oxotremorine 0.5 mg/kg s.c.; mice; read-out: Oxot. Antagonist Tremor (ED50)
Experimental: Oxotremorine antagonist assays were performed on groups of six mice weighing 18-22 g. Each was dosed intraperitoneally with the test compound prepared in 0.25% methylcellulose and were placed in individual cages. Twenty minutes later the mice were injected subcutaneously with 0.5 mg/kg of oxotremorine dissolved in saline. Ten minutes later the mice were scored for body tremor. Doses of the compound under study began at 100 mg/kg and were decreased at a 0.5 log interval until no responders were obtained.

Compound	ED50
Cc1cncn1CC#CCN(C)C(=O)N(C)C [Compound 25, [4-(5-Methyl-1H-imidazol-1-yl)-2-butynyl]trimethyl urea]	> 100 mg/kg
CC(=O)N(C)C(C)C#CCn1cc(C)nc1C (centres unmarked) [Compound 17, N-[4-(2,4-Dimethyl-1H-imidazol-1-yl)-1-methyl-2-butynyl]-N-methylacetamide]	80 mg/kg
CC(=O)NCC#CCn1cncc1C [Compound 23, N-[4-(5-Methyl-1H-imidazol-1-yl)-2-butynyl]acetamide]	> 100 mg/kg
Cc1cn(CC#CCN2CCCC2=O)cn1 [Compound 9, 1-[4-(4-Methyl-1H-imidazol-1-yl)-2-butynyl]-2-pyrrolidinone]	> 100 mg/kg
CC(=O)NCC#CCn1ccnc1 [Compound 22, N-[4-(1H-Imidazol-1-yl)-2-butynyl]acetamide]	> 100 mg/kg
CC(=O)N(C)C(C)C#CCn1cncc1C (centres unmarked) [Compound 21, N-[4(5-Methyl-1H-imidazol-1-yl)-1-methyl-2-butynyl]-N-methylacetamide]	80 mg/kg
CC(=O)N(C)CC#CCn1ccnc1 [Compound 19, N-[4-(1H-Imidazol-1-yl)-2-butynyl]-N-methylacetamide]	> 100 mg/kg

Same assay, conditions: Mus musculus, ip, read-out: Oxot. Antagonist Tremor (ED50)

Compound	ED50
Cc1cncn1CC#CCN1C(=O)CCC1=O [Compound 11, 1-[4-(5-Methyl-1H-imidazol-1-yl)-2-butynyl]-2,5-pyrrolidinedione]	37 mg/kg
C(#CCN1CCCC1)CN1CCCC1 [Tremorine, reference compound]	> 100 mg/kg
C(#CCn1ccnc1)CN1CCCC1 [Compound 28, 1-[4-(Pyrrolidinyl)-2-butynyl]-1H-imidazole]	> 100 mg/kg
CCN(CC)CC#CCn1ccnc1 [Compound 31, N,N-Diethyl-4-(1H-Imidazol-1-yl)-2-butyn-1-amine]	> 100 mg/kg
O=C1CCCN1CC#CCn1ccnc1 [Compound 1, 1-[4-(1H-Imidazol-1-yl)-2-butynyl]-2-pyrrolidinone]	> 100 mg/kg
Cc1nccn1CC#CCN1CCCC1 [Compound 30, 2-Methyl-1-[4-(pyrrolidinyl)-2-butynyl]-1H-imidazole]	> 100 mg/kg
Cc1cncn1CC#CCN1CCCC1 [Compound 32, 5-Methyl-1[(4-pyrrolidinyl)-2-butynyl]-1H-imidazole]	> 100 mg/kg
CN(C)CC#CCn1ccnc1 [Compound 29, 4-(1H-Imidazol-1-yl)-N,N-dimethyl-2-butyn-1-amine]	> 100 mg/kg
O=C1CCC(=O)N1CC#CCn1ccnc1 [Compound 10, 1-[4-(1H-Imidazol-1-yl)-2-butynyl]-2,5-pyrrolidinedione]	25 mg/kg

Test system: HCl-induced writhing in CF1 mice
Experiment: Analgesic activity, HCl writhing protection in mice
Assay type: in vivo
Details: Mus musculus, sc, 0.25 h, read-out: CNS Id (ED50 mg/kg) HCl Writh. Protect
Experimental: For determination of analgesic activity, the test compound was injected subcutaneously into a group of four CF1 mice. Thirty minutes later the mice were injected i.p. with 0.15% HCl, 10 ml./kg. Mice are then placed in plastic boxes and observed for fifteen minutes to record the number of animals failing to writhe.

Compound	ED50
C(#CCn1ccnc1)CN1CCCC1 [Compound 28, 1-[4-(Pyrrolidinyl)-2-butynyl]-1H-imidazole]	3.1 mg/kg
CCN(CC)CC#CCn1ccnc1 [Compound 31, N,N-Diethyl-4-(1H-Imidazol-1-yl)-2-butyn-1-amine]	> 50 mg/kg
Cc1nccn1CC#CCN1CCCC1 [Compound 30, 2-Methyl-1-[4-(pyrrolidinyl)-2-butynyl]-1H-imidazole]	5 mg/kg
CN(C)CC#CCn1ccnc1 [Compound 29, 4-(1H-Imidazol-1-yl)-N,N-dimethyl-2-butyn-1-amine]	> 50 mg/kg

Same assay, conditions: Mus musculus, sc, 0.25 h; s.c. test compound, 30 min before 0.15% HCl i.p.; CF1 mice; read-out: CNS Id (ED50 mg/kg) HCl Writh. Protect

Compound	ED50
O=C1CCCN1CC#CCn1ccnc1 [Compound 1, 1-[4-(1H-Imidazol-1-yl)-2-butynyl]-2-pyrrolidinone]	0.4 mg/kg
Cc1cncn1CC#CCN1CCCC1=O [Compound 3, 1-[4-(5-Methyl-1H-imidazol-1-yl)-2-butynyl]-2-pyrrolidinone]	2.6 mg/kg
CC(=O)N(C)C(C)C#CCn1cc(C)nc1C (centres unmarked) [Compound 17, N-[4-(2,4-Dimethyl-1H-imidazol-1-yl)-1-methyl-2-butynyl]-N-methylacetamide]	> 50 mg/kg

Test system: CNS cholinergic receptor
Experiment: not given
Assay type: binding
Details: QNB vs oxotremorine M binding

Compound	Ki ratio (Ki QNB/Ki oxotremorine M)
O=C1CCCN1CC#CCn1ccnc1 [Compound 1, 1-[4-(1H-Imidazol-1-yl)-2-butynyl]-2-pyrrolidinone]	> 100
Cc1cncn1CC#CCN1CCCC1=O [Compound 3, 1-[4-(5-Methyl-1H-imidazol-1-yl)-2-butynyl]-2-pyrrolidinone]	intermediate Ki ratios

Same assay, conditions: from Ki QNB/Ki oxotremorine M ratio

Compound	cholinergic agonist / antagonist / partial agonist classification by Ki ratio
O=C1CCCN1CC#CCn1ccnc1 [Compound 1, 1-[4-(1H-Imidazol-1-yl)-2-butynyl]-2-pyrrolidinone]	cholinergic agonists
Cc1cncn1CC#CCN1CCCC1=O [Compound 3, 1-[4-(5-Methyl-1H-imidazol-1-yl)-2-butynyl]-2-pyrrolidinone]	cholinergic partial agonists

Same assay, conditions: tritiated quinuclidine benzylate; read-out: CNS Cholinergic Receptor Binding Assays Ki (nM) QNB

Compound	Ki
Cc1cncn1CC#CCN1C(=O)CCC1=O [Compound 11, 1-[4-(5-Methyl-1H-imidazol-1-yl)-2-butynyl]-2,5-pyrrolidinedione]	100 nM
C(#CCN1CCCC1)CN1CCCC1 [Tremorine, reference compound]	4600 nM
O=C1CCCN1CC#CCn1ccnc1 [Compound 1, 1-[4-(1H-Imidazol-1-yl)-2-butynyl]-2-pyrrolidinone]	600 nM
Cc1cncn1CC#CCN1CCCC1=O [Compound 3, 1-[4-(5-Methyl-1H-imidazol-1-yl)-2-butynyl]-2-pyrrolidinone]	64 nM and 79.8 nM
CC(=O)N(C)C(C)C#CCn1cc(C)nc1C (centres unmarked) [Compound 17, N-[4-(2,4-Dimethyl-1H-imidazol-1-yl)-1-methyl-2-butynyl]-N-methylacetamide]	180 nM
Cc1cn(CC#CCN2CCCC2=O)cn1 [Compound 9, 1-[4-(4-Methyl-1H-imidazol-1-yl)-2-butynyl]-2-pyrrolidinone]	377 nM
CC(=O)N(C)C(C)C#CCn1cncc1C (centres unmarked) [Compound 21, N-[4(5-Methyl-1H-imidazol-1-yl)-1-methyl-2-butynyl]-N-methylacetamide]	184 nM
O=C1CCC(=O)N1CC#CCn1ccnc1 [Compound 10, 1-[4-(1H-Imidazol-1-yl)-2-butynyl]-2,5-pyrrolidinedione]	634 nM

Target: CNS cholinergic receptor
Experiment: Cholinergic receptor binding assay, tritiated oxotremorine M ligand
Details: read-out: CNS Cholinergic Receptor Binding Assays Ki (nM) Oxotremorine

Compound	Ki
Cc1cncn1CC#CCN1C(=O)CCC1=O [Compound 11, 1-[4-(5-Methyl-1H-imidazol-1-yl)-2-butynyl]-2,5-pyrrolidinedione]	10.3 nM
C(#CCN1CCCC1)CN1CCCC1 [Tremorine, reference compound]	370 nM
CCN(CC)CC#CCn1ccnc1 [Compound 31, N,N-Diethyl-4-(1H-Imidazol-1-yl)-2-butyn-1-amine]	10000 nM
O=C1CCCN1CC#CCn1ccnc1 [Compound 1, 1-[4-(1H-Imidazol-1-yl)-2-butynyl]-2-pyrrolidinone]	1.3 nM
Cc1cncn1CC#CCN1CCCC1=O [Compound 3, 1-[4-(5-Methyl-1H-imidazol-1-yl)-2-butynyl]-2-pyrrolidinone]	3.2 nM and 3.3 nM
Cc1cncn1CC#CCN(C)C(=O)N(C)C [Compound 25, [4-(5-Methyl-1H-imidazol-1-yl)-2-butynyl]trimethyl urea]	82.1 nM
CC(=O)N(C)C(C)C#CCn1cc(C)nc1C (centres unmarked) [Compound 17, N-[4-(2,4-Dimethyl-1H-imidazol-1-yl)-1-methyl-2-butynyl]-N-methylacetamide]	130 nM
CC(=O)NCC#CCn1cncc1C [Compound 23, N-[4-(5-Methyl-1H-imidazol-1-yl)-2-butynyl]acetamide]	213 nM
Cc1cncn1CC#CCN1CCCC1 [Compound 32, 5-Methyl-1[(4-pyrrolidinyl)-2-butynyl]-1H-imidazole]	436 nM
Cc1cn(CC#CCN2CCCC2=O)cn1 [Compound 9, 1-[4-(4-Methyl-1H-imidazol-1-yl)-2-butynyl]-2-pyrrolidinone]	10.3 nM
CC(=O)NCC#CCn1ccnc1 [Compound 22, N-[4-(1H-Imidazol-1-yl)-2-butynyl]acetamide]	187 nM
CC(=O)N(C)C(C)C#CCn1cncc1C (centres unmarked) [Compound 21, N-[4(5-Methyl-1H-imidazol-1-yl)-1-methyl-2-butynyl]-N-methylacetamide]	10 nM
CC(=O)N(C)CC#CCn1ccnc1 [Compound 19, N-[4-(1H-Imidazol-1-yl)-2-butynyl]-N-methylacetamide]	1.9 nM
CN(C)CC#CCn1ccnc1 [Compound 29, 4-(1H-Imidazol-1-yl)-N,N-dimethyl-2-butyn-1-amine]	10000 nM
O=C1CCC(=O)N1CC#CCn1ccnc1 [Compound 10, 1-[4-(1H-Imidazol-1-yl)-2-butynyl]-2,5-pyrrolidinedione]	23.5 nM
